The subject of one assay is BA/F3 (insSVD) cells. Nature of the assay: Ba/F3-EGFR-insSVD cell survival assay (Cell Titer-Glo). In kind it is cell-based. The following applies: Mus musculus, BaF3, 48 h, Table 3a, cell survival, Cell Titer-Glo, with 10 ng/ml EGF, without IL-3. The procedure, abridged:
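Ba/F3 cells stably expressing retroviral EGFR-insSVD or insSVD T790M, grown without IL-3 on 10 ng/ml EGF, 4000 cells/well. Compound pinned in, 48 h at 37° C. Viability by CellTiter-Glo luminescence.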
For orientation: Cellular ATP, detected with luciferase, serves as a proxy for viable cell number.

The target in assay [1] is T1, mutEGFR (D770_N771insSVD) (Homo sapiens, UniProt P00533, DUP768-770).
T1 construct: GST-EGFR #3 (SVD between D770 and N771); made in house; host or cells: Sf9 insect cells (baculovirus)
T1 sequence (P00533 with tags, fused parts or gaps DUP768-770): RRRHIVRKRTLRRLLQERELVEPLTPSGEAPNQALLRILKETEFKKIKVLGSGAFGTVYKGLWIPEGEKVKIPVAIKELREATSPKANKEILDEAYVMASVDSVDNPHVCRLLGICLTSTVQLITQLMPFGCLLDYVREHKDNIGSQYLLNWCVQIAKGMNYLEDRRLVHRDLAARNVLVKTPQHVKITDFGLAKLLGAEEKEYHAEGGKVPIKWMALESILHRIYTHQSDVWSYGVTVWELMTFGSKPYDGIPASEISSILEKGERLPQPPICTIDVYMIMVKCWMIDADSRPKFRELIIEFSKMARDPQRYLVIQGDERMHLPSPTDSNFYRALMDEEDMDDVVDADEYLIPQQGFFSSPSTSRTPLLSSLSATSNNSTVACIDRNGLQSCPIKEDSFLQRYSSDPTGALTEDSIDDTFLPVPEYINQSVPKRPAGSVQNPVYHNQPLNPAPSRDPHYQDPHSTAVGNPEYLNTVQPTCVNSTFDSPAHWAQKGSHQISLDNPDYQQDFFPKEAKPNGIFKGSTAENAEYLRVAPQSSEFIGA
Put plainly: Exon20-Mutant-EGFR (D770_N771insSVD) kinase assay (TR-FRET). In kind it is biochemical. The conditions noted are these: mutEGFR (D770_N771insSVD) kinase assay IC50, Table 2a; D770_N771insSVD; 2 mM ATP.

In assay [2] the target is T2, mutEGFR (D770_N771insNPG, T790) (Homo sapiens, UniProt P00533, INS770NPG/T790M).
T2 construct: exact insNPG construct not described; in-house EGFR proteins were N-terminal GST fusions from baculovirus/insect cells (borders R669-A1210 given only for WT, insSVD, insASV)
T2 sequence (P00533 with tags, fused parts or gaps INS770NPG/T790M limits assumed): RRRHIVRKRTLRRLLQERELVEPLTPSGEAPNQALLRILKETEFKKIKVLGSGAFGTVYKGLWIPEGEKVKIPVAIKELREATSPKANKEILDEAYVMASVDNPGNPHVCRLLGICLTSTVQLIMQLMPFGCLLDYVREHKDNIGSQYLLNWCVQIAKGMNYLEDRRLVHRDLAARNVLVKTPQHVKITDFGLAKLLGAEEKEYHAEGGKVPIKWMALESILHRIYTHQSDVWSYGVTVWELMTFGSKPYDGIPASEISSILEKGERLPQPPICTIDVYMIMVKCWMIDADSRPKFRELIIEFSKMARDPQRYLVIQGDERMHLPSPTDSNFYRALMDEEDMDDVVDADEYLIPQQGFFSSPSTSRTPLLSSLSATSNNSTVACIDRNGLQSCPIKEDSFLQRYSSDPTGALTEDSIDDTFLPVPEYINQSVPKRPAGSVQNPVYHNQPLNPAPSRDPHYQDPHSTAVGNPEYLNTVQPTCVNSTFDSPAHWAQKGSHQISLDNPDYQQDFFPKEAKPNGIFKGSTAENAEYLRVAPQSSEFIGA
Put plainly: mutEGFR (D770_N771insNPG, T790) kinase assay. In kind it is biochemical. The conditions noted are these: Table 2a, D770_N771insNPG. The text has this: The different EGFR proteins used in the biochemical kinase activity inhibition assays were generated inhouse by expression in insect cells using Baculo Virus system and subsequent purification as described in the following paragraphs.
The cDNAs encoding the various protein sequences from human EGFR human (P00533) were optimized for expression in eukaryotic cells and synthesized by the GeneArt Technology at Life Technologies.

Turning to `CN(C)C/C=C/C(=O)N1CCn2nc(-c3ccc4nn[nH]c4c3)c(-c3ccncc3)c2C1` [Example 198, (2E)-1-[2-(1H-benzotriazol-6-yl)-3-(pyridin-4-yl)-6,7-dihydropyrazolo[1,5-a]pyrazin-5(4H)-yl]-4-(dimethylamino)but-2-en-1-one], the figures for the IC50 (in the assay on BA/F3 (insSVD) cells; in assay [1]; in assay [2]) were 6390 nM, 476 nM and 1070 nM, respectively.

As to `O=C(/C=C/C(F)(F)F)N1CCn2nc(-c3ccc(F)cc3)c(-c3ccncc3)c2C1` [Example 67, (2E)-4,4,4-trifluoro-1-[2-(4-fluorophenyl)-3-(pyridin-4-yl)-6,7-dihydropyrazolo[1,5-a]pyrazin-5(4H)-yl]but-2-en-1-one], the IC50 (usually the point on the concentration scale where inhibition reaches its midpoint) with BA/F3 (insSVD) cells was 83.4 nM; in assay [1] it was 1.22 nM; in assay [2] it was 3.3 nM.

Regarding `C=CC(=O)N1Cc2c(-c3ccncc3)c(-c3cccc(C#N)c3)nn2C[C@@H]1C` [Example 127, 3-[(6S)-6-methyl-5-(prop-2-enoyl)-3-(pyridin-4-yl)-4,5,6,7-tetrahydropyrazolo[1,5-a]pyrazin-2-yl]benzonitrile], the results for the IC50 (in the assay on BA/F3 (insSVD) cells; in assay [1]; in assay [2]) were 39 nM, 25.4 nM and 5.65 nM, respectively.

Consider `COC1CCN(C/C=C/C(=O)N2CCn3nc(-c4ccc(Cl)cc4)c(-c4ccncc4)c3C2)CC1` [Example 168, (2E)-1-[2-(4-chlorophenyl)-3-(pyridin-4-yl)-6,7-dihydropyrazolo[1,5-a]pyrazin-5(4H)-yl]-4-(4-methoxypiperidin-1-yl) but-2-en-1-one], for which the half-maximal inhibitory concentration (IC50) amounted to 63.7 nM in the assay on BA/F3 (insSVD) cells, 0.245 nM in assay [1] and 0.692 nM in assay [2].

For the compound `C=CC(=O)N1Cc2c(-c3ccncc3)c(-c3ccc(OC)cc3)nn2CC1C` (racemic) [Example 228, 1-[(6RS)-2-(4-methoxyphenyl)-6-methyl-3-(pyridin-4-yl)-6,7-dihydropyrazolo[1,5-a]pyrazin-5(4H)-yl]prop-2-en-1-one], the IC50 was found to be 44.6 nM in the assay on BA/F3 (insSVD) cells, 0.724 nM in assay [1] and 2.2 nM in assay [2].

As to `CC(C)(C)NC/C=C/C(=O)N1CCn2nc(-c3ccc(Cl)cc3)c(-c3ccncc3)c2C1` [Example 167, (2E)-4-(tert-butylamino)-1-[2-(4-chlorophenyl)-3-(pyridin-4-yl)-6,7-dihydropyrazolo[1,5-a]pyrazin-5(4H)-yl]but-2-en-1-one], the IC50 with BA/F3 (insSVD) cells was determined as 35.2 nM; in assay [1] it was 0.256 nM; in assay [2], 1.02 nM.

Take `Cc1c[nH]c2nccc(-c3c(-c4ccc(Cl)cc4)nn4c3CN(C(=O)/C=C/CN(C)C)CC4)c12` [Example 183, (2E)-1-[2-(4-chlorophenyl)-3-(3-methyl-1H-pyrrolo[2,3-b]pyridin-4-yl)-6,7-dihydropyrazolo[1,5-a]pyrazin-5(4H)-yl]-4-(dimethylamino)but-2-en-1-one]: the figures for the IC50 (in the assay with BA/F3 (insSVD) cells; in assay [1]; in assay [2]) were 65.6 nM, 96.8 nM and 217 nM, respectively.

Consider `C=CC(=O)N1CCn2nc(-c3ccc(CC)cc3)c(-c3ccncc3)c2C1` [Example 140, 1-[2-(4-ethylphenyl)-3-(pyridin-4-yl)-6,7-dihydropyrazolo[1,5-a]pyrazin-5(4H)-yl]prop-2-en-1-one], for which the figures for the IC50 (with BA/F3 (insSVD) cells; in assay [1]; in assay [2]) were 51.4 nM, 0.812 nM and 3.08 nM, respectively.

For `CN(C)C/C=C/C(=O)N1CCn2nc(-c3ccccc3Cl)c(-c3ccncc3)c2C1` [Example 154, (2E)-1-[2-(2-chlorophenyl)-3-(pyridin-4-yl)-6,7-dihydropyrazolo[1,5-a]pyrazin-5(4H)-yl]-4-(dimethylamino)but-2-en-1-one], the IC50 in the assay on BA/F3 (insSVD) cells was 2850 nM; in assay [1], 3.48 nM; in assay [2], 27.5 nM.

As to `C=CC(=O)N1Cc2c(-c3ccnc4[nH]cc(C)c34)c(-c3ccc(C(F)(F)F)cc3)nn2C[C@H]1C` [Example 260, 1-[(6R)-6-methyl-3-(3-methyl-1H-pyrrolo[2,3-b]pyridin-4-yl)-2-[4-(trifluoromethyl)phenyl]-6,7-dihydropyrazolo[1,5-a]pyrazin-5(4H)-yl]prop-2-en-1-one], the results for the IC50 (in the assay with BA/F3 (insSVD) cells; in assay [1]; in assay [2]) were 101 nM, 82.9 nM and 1280 nM, respectively.

Values taken from US20260365653A1, “IRREVERSIBLE MUTEGFR INHIBITORS” (Bayer Aktiengesellschaft, priority 2022, published 2026).
